Consider 7 compounds from patent US11066443B2 (Hoffmann-La Roche Inc., priority 2017, dated 2021).

The subject of this experiment is P. aeruginosa NCTC11454. Description: Antimicrobial susceptibility testing: 50% growth inhibitory concentration (IC50) determination. Type of experiment: cell-based. As to conditions: Pseudomonas aeruginosa, Iso-Sensitest broth, OD 600 nm every 20 minutes over 16h, growth inhibition during logarithmic growth. Here is the method: The in vitro antimicrobial activity of the compounds was alternatively determined according to the following procedure: The assay used a 10-points Iso-Sensitest broth medium to measure quantitatively the in vitro activity of the compounds against P. aeruginosa NCTC11454. Stock compounds in DMSO were serially twofold diluted (e.g. range from 50 to 0.097 μM final concentration) in 384 wells microtiter plates and inoculated with 49 μl the bacterial suspension in Iso-Sensitest medium to have a final cell concentration of ˜5×10^(5) CFU/ml in a final volume/well of 50 ul/well. Microtiter plates were incubated at 35±2° C. Bacterial cell growth was determined with the measurement of optical density at λ=600 nm each 20 minutes over a time course of 16h. Growth inhibition was calculated during the logarithmic growth of the bacterial cells with determination of the concentration inhibiting 50% (IC50) and 90% (IC90) of the growth. Table 2 provides the 50% growth inhibitory concentrations (IC50) in micromoles per liter of the compounds of present invention obtained against P. aeruginosa NCTC11454.

In turn, `CN1C(=O)[C@H](CCCCN)NC(=O)[C@H](CCCN)NCc2ccccc2Sc2c(Cl)cc(-c3cccnc3)cc2CNC(=O)[C@@H]1Cc1c[nH]c2ccccc12` [Example 34, (12S,15S,18S)-15-(4-Amino-butyl)-18-(3-amino-propyl)-4-chloro-12-(1H-indol-3-ylmethyl)-13-methyl-6-pyridin-3-yl-2-thia-10,13,16,19-tetraaza-tricyclo[19.4.0.0*3,8*]pentacosa-1(25),3,5,7,21,23-hexaene-11,14,17-trione] returned an IC50 of 27.8 µM.
To `CN1C(=O)[C@H](CCCCN)NC(=O)[C@H](CCCN)NCc2cccnc2Sc2c(Cl)cc(-c3ccccc3)cc2CNC(=O)[C@@H]1Cc1c[nH]c2ccccc12` [Example 35, 11-(3-amino-propyl)-25-chloro-17-(1H-indol-3-ylmethyl)-16-methyl-23-phenyl-2-thia-4,10,13,16,19-pentaaza-tricyclo[9.4.0.0*3,8*]pentacsa-(25),3(8),4,6,21,23-hexaene-12,15,18-trione] belongs 8.1 µM; to `CN1C(=O)[C@H](CCCCN)NC(=O)[C@H](CCCN)NCc2ccccc2Sc2c(Cl)cc(Br)cc2CNC(=O)[C@@H]1Cc1c[nH]c2ccccc12` [Example 36, (12S,15S,18S)-15-(4-Amino-butyl)-18-(3-amino-propyl)-6-bromo-4-chloro-12-(1H-indol-3-ylmethyl)-13-methyl-2-thia-10,13,16,19-tetraaza-tricyclo[19.4.0.0*3,8*]pentacosa-1(25),3,5,7,21,23-hexaene-11,14,17-trione], 12.5 µM.
With `CN1C(=O)[C@H](CCCCN)NC(=O)[C@H](CCC(N)=O)NCc2ccccc2Sc2c(cc(-c3ccccc3)cc2C(F)(F)F)CNC(=O)[C@@H]1Cc1c[nH]c2ccccc12` [Example 38, 3-[(11S,14S,17S)-14-(4-Amino-butyl)-17-(1H-indol-3-ylmethyl)-16-methyl-12,15,18-trioxo-23-phenyl-25-trifluoromethyl-2-thia-10,13,16,19-tetraaza-tricyclo[19.4.0.0*3,8*]pentacosa-1(25),3,5,7,21,23-hexaen-11-yl]-propionamide] the figure was 14.5 µM; with `CN1C(=O)[C@H](CCC(N)=O)NC(=O)[C@H](CCCN)NCc2ccccc2Sc2c(cc(-c3ccccc3)cc2C(F)(F)F)CNC(=O)[C@@H]1Cc1c[nH]c2ccccc12` [Example 39, 3-[(11S,14S,17S)-11-(3-Amino-propyl)-17-(1H-indol-3-ylmethyl)-16-methyl-12,15,18-trioxo-23-phenyl-25-trifluoromethyl-2-thia-10,13,16,19-tetraaza-tricyclo[19.4.0.0*3,8*]pentacosa-1(25),3,5,7,21,23-hexaen-14-yl]-propionamide], 23.5 µM; with `CN1C(=O)[C@H](CCCCN)NC(=O)[C@H](CCCN)NCc2cccnc2Sc2c(Cl)cc(-c3ccnc(Cl)c3)cc2CNC(=O)[C@@H]1Cc1c[nH]c2ccccc12` [Example 40, (11S,14S,17S)-14-(4-Amino-butyl)-11-(3-amino-propyl)-25-chloro-23-(2-chloro-pyridin-4-yl)-17-(1H-indol-3-ylmethyl)-16-methyl-2-thia-4,10,13,16,19-pentaaza-tricyclo[19.4.0.0*3,8*]pentacosa-1(21),3,5,7,22,24-hexaene-12,15,18-trione], 25.1 µM.
To `CN1C(=O)[C@H](CCCCN)NC(=O)[C@H](CCCN)NCc2ccccc2Sc2c(ccc(Br)c2Cl)CNC(=O)[C@@H]1Cc1c[nH]c2ccccc12` [Example 41, (12S,15S,18S)-15-(4-Amino-butyl)-18-(3-amino-propyl)-5-bromo-4-chloro-12-(1H-indol-3-ylmethyl)-13-methyl-2-thia-10,13,16,19-tetraaza-tricyclo[19.4.0.0*3,8*]pentacosa-1(25),3,5,7,21,23-hexaene-11,14,17-trione] belongs 6.5 µM.
